“And” between values parts separate entries of the source, which are not always exact repeats. Equal entries are not always repeated.
Key:
[1] = xn = mol fraction of the nth substance listed; details: 298 K; 100 kPa; Crystal of intercomponent compound 1; X-ray diffraction; x2 = 0.486
[2] = specific heat capacity at constant pressure; xn = mol fraction of the nth substance listed; details: 100 kPa, Crystal of intercomponent compound 1, relaxation calorimetry, x2 = 0.486

[Te] [tellurium] + [Ga]
Details | mass density [kg/m3]
[1] | 5448

[2]
Details | specific heat capacity
14.14 K | 12.49 J/K/kg
14.15 K | 12.53 J/K/kg
16.16 K | 17.22 J/K/kg
16.18 K | 17.24 J/K/kg
18.17 K | 22.39 J/K/kg and 22.38 J/K/kg
18.18 K | 22.43 J/K/kg
20.18 K | 27.78 J/K/kg
20.19 K | 27.77 J/K/kg
20.2 K | 27.79 J/K/kg
22.21 K | 33.2 J/K/kg
22.22 K | 33.22 J/K/kg
24.22 K | 38.74 J/K/kg
24.23 K | 38.79 J/K/kg
26.24 K | 44.36 J/K/kg and 44.33 J/K/kg and 44.32 J/K/kg
28.25 K | 49.69 J/K/kg
28.26 K | 49.67 J/K/kg
30.27 K | 54.94 J/K/kg
30.29 K | 54.99 J/K/kg
35.31 K | 68.01 J/K/kg
35.32 K | 68.01 J/K/kg
35.33 K | 68.06 J/K/kg
40.35 K | 80.38 J/K/kg
40.36 K | 80.53 J/K/kg and 80.38 J/K/kg
45.39 K | 92.13 J/K/kg
45.41 K | 91.88 J/K/kg
50.41 K | 103.44 J/K/kg
50.43 K | 103.49 J/K/kg
50.46 K | 103.13 J/K/kg
55.45 K | 113.77 J/K/kg
55.46 K | 113.98 J/K/kg
55.5 K | 113.47 J/K/kg
60.48 K | 123.56 J/K/kg
60.5 K | 123.56 J/K/kg
60.52 K | 123.05 J/K/kg
65.51 K | 133.13 J/K/kg
65.54 K | 132.63 J/K/kg
65.55 K | 133.08 J/K/kg
70.55 K | 141.95 J/K/kg
70.56 K | 141.34 J/K/kg
70.6 K | 141.7 J/K/kg
75.58 K | 149.91 J/K/kg
75.59 K | 149.2 J/K/kg
75.64 K | 149.81 J/K/kg
80.61 K | 157.76 J/K/kg
80.63 K | 157.11 J/K/kg
80.67 K | 157.61 J/K/kg
85.63 K | 164.86 J/K/kg
85.64 K | 164.2 J/K/kg
85.72 K | 164.66 J/K/kg
90.68 K | 171.5 J/K/kg and 170.94 J/K/kg
90.75 K | 171.14 J/K/kg
95.71 K | 177.22 J/K/kg and 176.31 J/K/kg
95.78 K | 176.62 J/K/kg
100.78 K | 185.08 J/K/kg
100.82 K | 184.52 J/K/kg
100.86 K | 184.88 J/K/kg
105.73 K | 192.73 J/K/kg
105.87 K | 191.31 J/K/kg and 192.07 J/K/kg
113.71 K | 198.86 J/K/kg
113.79 K | 197.4 J/K/kg
113.83 K | 197.65 J/K/kg
121.68 K | 205.1 J/K/kg
121.71 K | 204.14 J/K/kg
121.77 K | 203.73 J/K/kg
129.62 K | 209.51 J/K/kg
129.64 K | 209.91 J/K/kg
129.7 K | 208.39 J/K/kg
137.55 K | 213.76 J/K/kg
137.59 K | 213.56 J/K/kg
137.61 K | 212.24 J/K/kg
145.48 K | 218.93 J/K/kg
145.53 K | 218.27 J/K/kg
145.54 K | 217.36 J/K/kg
153.41 K | 222.38 J/K/kg
153.42 K | 222.23 J/K/kg
153.44 K | 222.08 J/K/kg
161.35 K | 224.41 J/K/kg and 224.26 J/K/kg
161.36 K | 224.31 J/K/kg
169.28 K | 227.5 J/K/kg and 227.09 J/K/kg
169.3 K | 227.04 J/K/kg
177.2 K | 229.17 J/K/kg and 228.87 J/K/kg
177.22 K | 228.92 J/K/kg
185.1 K | 230.89 J/K/kg
185.14 K | 230.79 J/K/kg
185.15 K | 230.59 J/K/kg
193.03 K | 233.63 J/K/kg
193.06 K | 233.38 J/K/kg
193.08 K | 233.43 J/K/kg
200.95 K | 233.83 J/K/kg
200.99 K | 233.88 J/K/kg
201 K | 233.68 J/K/kg
201.42 K | 236.77 J/K/kg
201.44 K | 236.67 J/K/kg
201.53 K | 234.69 J/K/kg
206.43 K | 237.94 J/K/kg
206.46 K | 237.84 J/K/kg
206.54 K | 236.01 J/K/kg
208.87 K | 236.16 J/K/kg
208.91 K | 236.52 J/K/kg
208.92 K | 236.37 J/K/kg
211.46 K | 238.9 J/K/kg
211.47 K | 238.9 J/K/kg
211.55 K | 236.98 J/K/kg
216.49 K | 239.91 J/K/kg
216.55 K | 238.55 J/K/kg
216.78 K | 238.34 J/K/kg
216.82 K | 238.39 J/K/kg
216.83 K | 238.19 J/K/kg
221.51 K | 241.18 J/K/kg and 241.33 J/K/kg and 241.13 J/K/kg
221.53 K | 241.03 J/K/kg
221.59 K | 239.61 J/K/kg
224.71 K | 241.13 J/K/kg
224.75 K | 241.28 J/K/kg
224.76 K | 240.98 J/K/kg
225.58 K | 241.79 J/K/kg
225.61 K | 241.84 J/K/kg
226.54 K | 242.25 J/K/kg and 242.35 J/K/kg
226.61 K | 240.73 J/K/kg
229.65 K | 241.89 J/K/kg
229.68 K | 241.44 J/K/kg
231.54 K | 243.26 J/K/kg
231.76 K | 241.44 J/K/kg
232.62 K | 240.42 J/K/kg
232.68 K | 239.97 J/K/kg and 240.47 J/K/kg
233.72 K | 242.04 J/K/kg
233.75 K | 241.94 J/K/kg
236.76 K | 242.3 J/K/kg
237.69 K | 243.11 J/K/kg
237.73 K | 242.45 J/K/kg
240.54 K | 241.54 J/K/kg
240.6 K | 241.28 J/K/kg and 241.49 J/K/kg
